Measurements reported in ChEMBL document CHEMBL5576074, “[1,2,4]Triazolo[1,5-a]pyrimidine derivatives: Structure-activity relationship study leading to highly selective ENPP1 inhibitors” (Bioorg Med Chem Lett, 2024).

Key:
[1] = target: T1, Ectonucleotide pyrophosphatase/phosphodiesterase family member 3 (Homo sapiens) (UniProt O14638); assay: Inhibition of ENPP3 (unknown origin) at 10 uM relative to control
T1 sequence (whole entry): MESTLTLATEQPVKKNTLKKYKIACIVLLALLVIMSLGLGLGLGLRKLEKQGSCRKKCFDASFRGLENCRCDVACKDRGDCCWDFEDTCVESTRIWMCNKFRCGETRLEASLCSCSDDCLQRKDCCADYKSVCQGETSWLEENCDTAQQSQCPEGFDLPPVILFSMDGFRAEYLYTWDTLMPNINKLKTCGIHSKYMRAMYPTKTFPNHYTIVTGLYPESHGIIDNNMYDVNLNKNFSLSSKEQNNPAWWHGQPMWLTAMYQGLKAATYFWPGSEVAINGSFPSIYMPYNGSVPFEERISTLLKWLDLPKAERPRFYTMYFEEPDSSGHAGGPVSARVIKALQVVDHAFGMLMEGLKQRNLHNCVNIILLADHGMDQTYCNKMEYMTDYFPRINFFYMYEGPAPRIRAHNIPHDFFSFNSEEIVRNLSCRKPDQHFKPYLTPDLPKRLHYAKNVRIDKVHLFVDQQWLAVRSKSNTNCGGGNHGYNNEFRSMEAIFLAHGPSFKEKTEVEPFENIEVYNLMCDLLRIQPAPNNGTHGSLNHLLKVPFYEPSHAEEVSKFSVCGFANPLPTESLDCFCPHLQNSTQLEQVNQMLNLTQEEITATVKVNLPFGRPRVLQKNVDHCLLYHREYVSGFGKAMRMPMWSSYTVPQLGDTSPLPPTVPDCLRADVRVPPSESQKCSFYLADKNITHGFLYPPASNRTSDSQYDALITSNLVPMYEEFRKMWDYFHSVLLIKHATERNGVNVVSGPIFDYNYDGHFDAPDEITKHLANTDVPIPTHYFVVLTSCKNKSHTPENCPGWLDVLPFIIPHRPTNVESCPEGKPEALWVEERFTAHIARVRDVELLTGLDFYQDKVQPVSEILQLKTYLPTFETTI

[2] = target: T1, Ectonucleotide pyrophosphatase/phosphodiesterase family member 3 (Homo sapiens); assay: Inhibition of ENPP3 (unknown origin) at 50 uM relative to control
[3] = target: T2, Glycerophosphocholine cholinephosphodiesterase ENPP6 (Homo sapiens) (UniProt Q6UWR7); assay: Inhibition of ENPP6 (unknown origin) at 50 uM relative to control
T2 sequence (whole entry): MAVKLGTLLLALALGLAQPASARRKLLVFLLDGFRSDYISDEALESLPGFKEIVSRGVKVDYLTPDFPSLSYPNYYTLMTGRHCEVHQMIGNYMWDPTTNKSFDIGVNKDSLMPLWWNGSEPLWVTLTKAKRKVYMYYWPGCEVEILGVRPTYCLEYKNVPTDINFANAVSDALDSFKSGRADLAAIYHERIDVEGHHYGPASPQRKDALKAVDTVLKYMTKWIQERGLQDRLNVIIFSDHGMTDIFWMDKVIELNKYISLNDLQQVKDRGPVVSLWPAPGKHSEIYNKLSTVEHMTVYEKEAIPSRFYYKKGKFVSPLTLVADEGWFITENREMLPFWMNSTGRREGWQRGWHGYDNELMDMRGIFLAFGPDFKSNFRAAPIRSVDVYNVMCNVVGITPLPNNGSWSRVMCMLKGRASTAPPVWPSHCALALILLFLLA

Autotaxin [4] = target: T3, Autotaxin (Homo sapiens, UniProt Q13822); assay: Inhibition of ENPP2 (unknown origin)
[5] = target: T4, Ectonucleotide pyrophosphatase/phosphodiesterase family member 3 (Homo sapiens, UniProt O14638); assay: Inhibition of ENPP3 (unknown origin)
T4 sequence (O14638 whole entry): T1 sequence (whole entry)

[6] = target: T5, Ectonucleotide pyrophosphatase/phosphodiesterase family member 1 (Homo sapiens, UniProt P22413); assay: Inhibition of ENPP1 (unknown origin)
T5 sequence (P22413 whole entry): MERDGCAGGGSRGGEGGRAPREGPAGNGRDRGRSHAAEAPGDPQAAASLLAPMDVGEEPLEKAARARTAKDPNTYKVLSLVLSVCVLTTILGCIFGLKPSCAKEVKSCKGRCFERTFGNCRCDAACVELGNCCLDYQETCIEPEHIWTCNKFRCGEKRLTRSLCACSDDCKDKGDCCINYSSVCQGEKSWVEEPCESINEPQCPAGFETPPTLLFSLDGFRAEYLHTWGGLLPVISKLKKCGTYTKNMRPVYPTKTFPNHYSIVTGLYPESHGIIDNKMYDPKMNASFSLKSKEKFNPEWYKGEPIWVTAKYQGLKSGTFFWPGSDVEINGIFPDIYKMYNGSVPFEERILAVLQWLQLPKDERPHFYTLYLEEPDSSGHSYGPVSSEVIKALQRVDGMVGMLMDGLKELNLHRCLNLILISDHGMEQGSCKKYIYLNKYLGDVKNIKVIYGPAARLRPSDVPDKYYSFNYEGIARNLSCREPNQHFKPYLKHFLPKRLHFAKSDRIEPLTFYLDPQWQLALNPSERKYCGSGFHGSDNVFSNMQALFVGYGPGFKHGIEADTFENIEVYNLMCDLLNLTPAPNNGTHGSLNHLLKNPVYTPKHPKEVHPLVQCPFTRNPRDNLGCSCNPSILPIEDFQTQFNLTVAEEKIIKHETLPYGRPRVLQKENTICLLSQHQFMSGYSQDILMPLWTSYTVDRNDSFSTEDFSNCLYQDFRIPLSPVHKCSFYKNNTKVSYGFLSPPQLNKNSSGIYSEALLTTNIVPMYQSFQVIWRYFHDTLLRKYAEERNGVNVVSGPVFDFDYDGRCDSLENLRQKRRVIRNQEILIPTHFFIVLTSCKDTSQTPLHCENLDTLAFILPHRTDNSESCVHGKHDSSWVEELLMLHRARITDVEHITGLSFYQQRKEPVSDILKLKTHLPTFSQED

Autotaxin [7] = target: T3, Autotaxin; assay: Inhibition of ENPP2 (unknown origin) at 50 uM relative to control
[8] = target: T6, Glycerophosphocholine cholinephosphodiesterase ENPP6 (Homo sapiens, UniProt Q6UWR7); assay: Inhibition of ENPP6 (unknown origin)
T6 sequence (Q6UWR7 whole entry): T2 sequence (whole entry)

| Structure (SMILES) | inhibition [1] | inhibition [2] | inhibition [3] | IC50 (Autotaxin [4]) | IC50 [5] | IC50 [6] | inhibition (Autotaxin [7]) | IC50 [8] |
| --- | --- | --- | --- | --- | --- | --- | --- | --- |
| Cc1nc2ncnn2c(N2CCCCCC2)c1Cc1ccccc1 | 5% | – | – | – | – | – | – | – |
| Cc1nc2ncnn2c(N(C)C)c1Cc1ccccc1Cl | – | 3% | < 1% | > 50 µM | > 50 µM | 2.5 µM | 15% | > 50 µM |
| Cc1nc2nc(SCC(=O)O)nn2c(N(C)C)c1Cc1ccccc1 | – | < 1% | < 1% | > 50 µM | > 50 µM | > 30 µM | < 1% | > 50 µM |
| Cc1nc2ncnn2c(NCc2ccccc2)c1Cc1cccc(N)c1 | – | 11% | < 1% | > 50 µM | > 50 µM | 9 µM | < 1% | > 50 µM |
| Cc1nc2ncnn2c(N2CCCCC2)c1Cc1ccccc1 | 1% | – | – | – | – | – | – | – |
| CC(=O)Nc1ccc(Cc2c(C)nc3ncnn3c2N(C)C)cc1 | – | 8.5% | 2.3% | > 50 µM | > 50 µM | 4.9 µM | 5.1% | > 50 µM |
| CNc1c(Cc2ccccc2)c(C)nc2ncnn12 | – | 10% | < 1% | > 50 µM | > 50 µM | > 30 µM | < 1% | > 50 µM |
| Cc1nc2ncnn2c(N(C)C)c1Cc1ccc([N+](=O)[O-])cc1 | – | 2.7% | < 1% | > 50 µM | > 50 µM | 21 µM | < 1% | > 50 µM |
